Laboratory results: PubChem BioAssay (NCI)
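The compound was tested at five concentrations on cells cultured in 96-well plates, with a 48-hour exposure period. TGI denotes the concentration required for complete inhibition of growth.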

Experiments:
Test in all cases: DTP human tumour cell line panel, 48 h
IGROV1 ovarian = tested on: IGROV1 ovarian
UACC-257 melanoma = tested on: UACC-257 melanoma
A549 NSCLC = tested on: A549 NSCLC
KM12 colon = tested on: KM12 colon
UO-31 renal = tested on: UO-31 renal
EKVX NSCLC = tested on: EKVX NSCLC
RPMI-8226 leukemia = tested on: RPMI-8226 leukemia
NCI/ADR-RES ovarian = tested on: NCI/ADR-RES ovarian
MOLT-4 leukemia = tested on: MOLT-4 leukemia
M14 melanoma = tested on: M14 melanoma

SMILES	TGI (IGROV1 ovarian) [µM]	TGI (UACC-257 melanoma) [µM]	TGI (A549 NSCLC) [µM]	TGI (KM12 colon) [µM]	TGI (UO-31 renal) [µM]	TGI (EKVX NSCLC) [µM]	TGI (RPMI-8226 leukemia) [µM]	TGI (NCI/ADR-RES ovarian) [µM]	TGI (MOLT-4 leukemia) [µM]	TGI (M14 melanoma) [µM]
CC(C)(C)CC(C)(C)c1ccc(O)c(C[N+](C)(C)[O-])c1	> 100	> 100	> 100	> 100	> 100	> 100	> 100	> 100	> 100	> 100
O=C1CC2CCC(C1)S2=O (configuration not stated)	> 100	> 100	> 100	> 100	> 100	> 100	> 100	> 100	> 100	> 100
NC1CC=C(COC(=O)C(O)(c2ccccc2)C2CC2)CC1 (configuration not stated)	> 100	> 100	> 100	> 100	> 100	> 100	> 100	> 100	> 100	> 100
Cc1cc(S(=O)(=O)/N=C(/NN)NNc2cccc(C(F)(F)F)n2)c(S)cc1Cl		89.9	44.1	37.2	37.2	63.8	> 100	46.2	45.7	39.9
COc1ccc(N2NC(c3ccccc3)(c3ccccc3)C(C)C2=O)cc1 (configuration not stated)	> 100	> 100	> 100	> 100	> 100	> 100	> 100	> 100	> 100	> 100
O=c1c2ccccc2nc(N/N=C/c2ccccc2O)n1-c1ccccc1	> 100	> 100	> 100		> 100			7.71		> 100
O=C1C(=Cc2ccc(Cl)c(Cl)c2)C([O-])=C([P+](c2ccccc2)(c2ccccc2)c2ccccc2)C([O-])=C1[P+](c1ccccc1)(c1ccccc1)c1ccccc1	6.34	5.8	10.4	4.66	8.89	6.64	9.23	19.3	3.84	6.66
Cc1ccc(CCC(=O)C(=O)O)s1	> 100	> 100	> 100	> 100	> 100	> 100	> 100		> 100	> 100
CNc1ncnc2c1cnn2Cc1cn(COCC(O)CO)nn1 (configuration not stated)	> 100	> 100	> 100	> 100	> 100	> 100	> 100	> 100		> 100
Cc1ccc(N=C2C(=Nc3ccc(C)cc3)N(c3ccc(C)cc3)C(=S)N2C(=O)c2ccccc2)cc1	> 100		> 100	> 100	> 100	> 100	> 100	> 100	> 100	> 100
COc1ccc(C2=NN=C3C(c4ccccc4)=Nc4ccccc4N3C2)cc1	> 100	> 100	> 100	> 100	49.8	> 100	> 100	90.1	33.4	83.8
